Measured values as given in patent US12685761B2, “VIP and VIP agonists, nanoparticles, and uses in inflammatory T-cell mediated disease” (Emory University, priority 2018, dated 2026).

Test system: VIP-KO B6 recipients
Experiment: Short-term VIP administration in allo-BMT GvHD lethality model (FIG. 4)
Format: in vivo, mice
Conditions: VIP 10 μgram/day vs PBS from day 0 to day 10; lethally irradiated VIP-KO B6 recipients infused with 5M TCD BM plus 3×10^6 B10.BR T cells
Description: Lethally irradiated WT and VIP-KO B6 recipients were infused with 5M TCD BM plus 3×10^6 B10.BR T cells.

vasoactive intestinal peptide [VIP]
acute GvHD mortality after allo-BMT: rescued VIP-KO recipients from acute GvHD mortality
